The values that follow come from US9567322B2, “Substituted tetrahydropyrans and method of use” (AbbVie S.á.r.l., priority 2014, dated 2017).

Some results are limits rather than exact numbers.

One experiment has as its target T1, F508del/F508del CFTR (Homo sapiens, UniProt P13569, DEL508-508).
T1 construct: cells isolated from CF patients with the homozygous mutation; endogenous in cells; host or cells: primary human bronchial epithelial (hBE) cells from F508del/F508del CF patients
Description: Transepithelial Clamp Circuit (TECC-24) conductance assay on primary human bronchial epithelial cells. The format is cell-based. Particulars: primary hBE cells from F508del/F508delCFTR patients; for EC50: equivalent short circuit current (Ieq), correctors 18-24 hours at 37° C., with control potentiator, 6 test concentrations; for Maximum % activity: relative to positive control (3 μM) coupled with control potentiator = 100%. From the text: Transepithelial Clamp Circuit on Human Bronchial Epithelial Cells Conductance Assay:
A cell based assay using the primary human bronchial epithelial cells (hBE) was used as a secondary assay to test novel F508delCFTR correctors for their activity on primary hBE cells with F508del/F508del CFTR mutation. The assay used a TECC-24 (Transepithelial Clamp Circuit for 24 wells) instrument that measures the functionality of the mutated channel by measuring the equivalent short circuit current (Ieq) generated by the polarized epithelial cells. The instrument works by measuring the transepithelial potential difference (Vt) and transepithelial resistance (Rt) in an open circuit format, and the Ieq is calculated by using Ohms law (Ieq=Vt/Rt). The assay was run in a 24-well format and all 24-wells were measured at the same time point giving a higher throughput for this assay.
Primary human bronchial epithelial (hBE) cells from F508del/F508delCFTR patients were expanded from 1×10^6 to 250×10^6 cells (Neuberger T, Burton B, Clark H and VanGoor F; Cystic Fibrosis, Methods in Mole Biol 741; eds. Amaral M D and Kunzelmann K, 2011). For this purpose, cells isolated from CF patients with the homozygous mutation were seeded onto 24 well Corning (Cat #3378) filter plates that were coated with 3T3 conditioned media and grown at an air-liquid interface for 35 days using an Ultroser® G supplemented differentiation media. Apical surface mucus was removed 72 hours before the experiment using 3 mM dithiothreitol (DTT) in phosphate buffered saline (PBS). The apical surface was washed again 24 hours before the experiment using PBS. The cells were incubated with the desired dose response of the corrector compounds 18-24 hours at 37° C., 5% CO2. The corrector compounds are only added on the basolateral side of the epithelial cells.
On the day of measuring the corrector activity on the TECC, the cells were switched into a bicarbonate and serum free F-12 Coon's medium and allowed to equilibrate for 90 minutes in a CO2 free incubator. At the time of measurement, the apical and basolateral sides of the filter were bathed with the F-12 Coon's modification media (with 20 mM 4-(2-hydroxyethyl)-1-piperazineethanesulfonic acid (HEPES), pH 7.4 (using 1 M tris(hydroxymethyl)aminomethane (Tris)), and the measurements were made at 36.5° C. Transepithelial voltage (Vt) and transepithelial resistance (Rt) were measured using a 24 channel transepithelial current clamp (TECC-24). Current responses to the sequential addition of benzamil (apical 6 M addition; for inhibiting epithelial ENaC channel), forskolin (apical and basolateral 10 M addition; for activating the CFTR channel), control potentiator (N-(3-carbamoyl-5,5,7,7-tetramethyl-4,7-dihydro-5H-thieno[2,3-c]pyran-2-yl)-1H-pyrazole-5-carboxamide; apical and basolateral 1 M addition; for potentiating the CFTR channel) and bumetanide (basolateral 20 μM addition; for inhibiting the Na:2Cl:K co-transporter, an indirect measure of inhibiting the Cl-secretion driven by CFTR channel) were measured.
All plates contained negative controls (dimethyl sulfoxide, DMSO) which coupled with the control potentiator (N-(3-carbamoyl-5,5,7,7-tetramethyl-4,7-dihydro-5H-thieno[2,3-c]pyran-2-yl)-1H-pyrazole-5-carboxamide) sets the null response and positive controls (3 μM of 3-[(2R,4R)-4-({[1-(2,2-difluoro-1,3-benzodioxol-5-yl)cyclopropyl]carbonyl}amino)-7-methoxy-3,4-dihydro-2H-chromen-2-yl]benzoic acid) coupled with the control potentiator sets the 100% response to measure the correction of the mutated CFTR channel. The maximum percent activity is reported relative to the positive control value.
The % activity measured at each of the 6 test concentrations of the test compound was normalized to the on-plate positive control using the following formula: % activity=[(test compound response−DMSO response)/(positive control response−DMSO response)]*100 […]

A further experiment addresses T2, F508delCFTR (Homo sapiens, UniProt P13569, DEL508-508).
T2 construct: expressed in transfected cells; host or cells: CFBE41o- (CFBE41o-F508delCFTR-HRP), doxycycline-inducible
Kind of experiment: Cell Surface Expression-Horse Radish Peroxidase (CSE-HRP) assay. In kind it is cell-based. Particulars: CFBE41o-F508delCFTR-HRP cells; for EC50: cell surface expression, luminescence readout, 18-24 hours at 33° C., highest concentration tested 20 μM, 8-point curve; for Maximum % activity: maximum at any tested concentration, normalized to on-plate positive control (3 μM) and DMSO. In outline: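 CFBE41o- cells expressing F508delCFTR with HRP in the fourth extracellular loop were doxycycline-induced (0.5 μg/mL) for 72 h at 37 °C, then treated 18-24 h at 33 °C with an 8-point 3-fold series from 20 μM. Surface HRP luminescence (luminol) was normalized to DMSO and positive control; EC50 came from variable-slope sigmoidal fits of triplicate plates.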

T2 sequence (P13569 with tags, fused parts or gaps DEL508-508): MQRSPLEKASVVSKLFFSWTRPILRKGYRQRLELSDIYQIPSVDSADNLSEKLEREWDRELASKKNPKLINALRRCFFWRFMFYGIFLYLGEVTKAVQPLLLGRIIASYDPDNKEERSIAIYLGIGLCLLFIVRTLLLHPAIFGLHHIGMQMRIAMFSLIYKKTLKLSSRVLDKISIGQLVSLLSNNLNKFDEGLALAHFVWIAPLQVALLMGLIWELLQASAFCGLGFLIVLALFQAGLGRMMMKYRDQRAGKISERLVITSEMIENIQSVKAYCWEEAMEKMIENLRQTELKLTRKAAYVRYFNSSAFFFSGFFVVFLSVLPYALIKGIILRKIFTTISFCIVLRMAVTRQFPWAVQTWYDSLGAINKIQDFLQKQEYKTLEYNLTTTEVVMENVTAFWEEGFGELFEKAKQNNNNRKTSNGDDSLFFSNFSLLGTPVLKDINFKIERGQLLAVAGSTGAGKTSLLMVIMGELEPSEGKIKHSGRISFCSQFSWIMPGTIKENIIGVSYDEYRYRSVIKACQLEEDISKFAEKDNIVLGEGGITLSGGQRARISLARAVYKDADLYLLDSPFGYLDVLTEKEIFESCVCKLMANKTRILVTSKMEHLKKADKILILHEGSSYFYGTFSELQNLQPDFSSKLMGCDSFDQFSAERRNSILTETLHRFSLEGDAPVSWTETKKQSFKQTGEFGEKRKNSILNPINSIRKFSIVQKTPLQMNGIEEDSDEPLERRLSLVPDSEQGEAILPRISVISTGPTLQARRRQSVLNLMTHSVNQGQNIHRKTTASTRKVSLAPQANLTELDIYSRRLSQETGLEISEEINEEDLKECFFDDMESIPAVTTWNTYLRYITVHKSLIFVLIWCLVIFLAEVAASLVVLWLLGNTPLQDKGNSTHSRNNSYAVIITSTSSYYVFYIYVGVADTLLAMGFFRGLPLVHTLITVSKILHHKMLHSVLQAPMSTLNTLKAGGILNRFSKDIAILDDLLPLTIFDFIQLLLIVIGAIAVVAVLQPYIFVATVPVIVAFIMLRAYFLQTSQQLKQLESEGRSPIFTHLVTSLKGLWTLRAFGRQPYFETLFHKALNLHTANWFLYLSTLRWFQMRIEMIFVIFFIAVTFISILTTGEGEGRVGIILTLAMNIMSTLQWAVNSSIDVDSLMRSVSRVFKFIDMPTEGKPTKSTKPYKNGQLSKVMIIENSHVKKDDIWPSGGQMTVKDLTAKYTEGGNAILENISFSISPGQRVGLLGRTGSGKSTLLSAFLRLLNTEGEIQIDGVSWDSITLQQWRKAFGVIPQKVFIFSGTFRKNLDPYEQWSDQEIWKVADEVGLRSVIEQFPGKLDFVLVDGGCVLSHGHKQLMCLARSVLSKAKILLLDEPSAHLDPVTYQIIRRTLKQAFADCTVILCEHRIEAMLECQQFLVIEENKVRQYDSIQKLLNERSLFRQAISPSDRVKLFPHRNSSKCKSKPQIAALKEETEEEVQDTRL
T1 sequence (P13569 with tags, fused parts or gaps DEL508-508): as above

On to `O=C(O)c1ccc([C@H]2C[C@@H](NC(=O)C3(c4ccc5c(c4)OC(F)(F)O5)CC3)CCO2)cc1` (racemic) [Example 14, rac-4-[(2R,4S)-4-({[1-(2,2-difluoro-1,3-benzodioxol-5-yl)cyclopropyl]carbonyl}amino)tetrahydro-2H-pyran-2-yl]benzoic acid], for which the EC50 (commonly the concentration needed to bring the measured effect to its halfway point) at F508del/F508del CFTR was 1340 nM; at F508delCFTR, 2860 nM. For the same molecule, the “Maximum % activity” value is 73% on F508del/F508del CFTR and 113% at F508delCFTR.
Regarding `O=C(O)c1cccc([C@H]2C[C@@H](NC(=O)C3(c4ccc5c(c4)OC(F)(F)O5)CC3)C[C@@H](c3ccccc3)O2)c1` (racemic) [Example 24, rac-3-[(2R,4S,6S)-4-({[1-(2,2-difluoro-1,3-benzodioxol-5-yl)cyclopropyl]carbonyl}amino)-6-phenyltetrahydro-2H-pyran-2-yl]benzoic acid], at F508del/F508del CFTR, the 50% effective concentration (EC50) stood at 340 nM and the “Maximum % activity” value came to 76%. Also, at F508delCFTR, a half-maximal response (EC50) required 500 nM and the Maximum % activity amounted to 109%.
In the case of `O=C(O)c1ccc([C@H]2C[C@@H](NC(=O)C3(c4ccc5c(c4)OC(F)(F)O5)CC3)C[C@@H](c3ccccc3)O2)c(F)c1` (racemic) [Example 60, rac-4-[(2R,4S,6S)-4-({[1-(2,2-difluoro-1,3-benzodioxol-5-yl)cyclopropyl]carbonyl}amino)-6-phenyltetrahydro-2H-pyran-2-yl]-3-fluorobenzoic acid], on F508del/F508del CFTR, the EC50 is 140 nM and the “Maximum % activity” value is reported as 83%. On F508delCFTR, the response was half-maximal at 270 nM (EC50) and the Maximum % activity stood at 97%.
For `Cc1cc(C(=O)O)ccc1[C@H]1C[C@H](NC(=O)C2(c3ccc4c(c3)OC(F)(F)O4)CC2)C[C@@H](c2ccccc2)O1` (racemic) [Example 65, rac-4-[(2R,4R,6S)-4-({[1-(2,2-difluoro-1,3-benzodioxol-5-yl)cyclopropyl]carbonyl}amino)-6-phenyltetrahydro-2H-pyran-2-yl]-3-methylbenzoic acid], the “Maximum % activity” value is recorded as 84% on F508del/F508del CFTR and 100% on F508delCFTR (3 µM).
Take `COC(=O)c1cccc([C@H]2C[C@@H](NC(=O)C3(c4ccc5c(c4)OC(F)(F)O5)CC3)CCO2)c1` [Example 17, methyl 3-[(2R,4S)-4-({[1-(2,2-difluoro-1,3-benzodioxol-5-yl)cyclopropyl]carbonyl}amino)tetrahydro-2H-pyran-2-yl]benzoate]: at F508delCFTR, the midpoint of the response, the EC50, lay at 1110 nM and the Maximum % activity is on record as 81%.
The corresponding values for `O=C(O)c1cccc([C@@H]2C[C@H](NC(=O)C3(c4ccc5c(c4)OC(F)(F)O5)CC3)CCO2)c1` [Example 18, 3-[(2S,4R)-4-({[1-(2,2-difluoro-1,3-benzodioxol-5-yl)cyclopropyl]carbonyl}amino)tetrahydro-2H-pyran-2-yl]benzoic acid] are ≥ 20000 nM and 3%.
On to `O=C(N[C@@H]1CCO[C@@H](c2ccc(Br)cc2)C1)C1(c2ccc3c(c2)OC(F)(F)O3)CC1` [Example 20, N-[(2R,4R)-2-(4-bromophenyl)tetrahydro-2H-pyran-4-yl]-1-(2,2-difluoro-1,3-benzodioxol-5-yl)cyclopropanecarboxamide], for which, at F508delCFTR, the EC50 was determined as 7300 nM and the Maximum % activity amounted to 45%.
Turning to `O=C(N[C@H]1CCO[C@H](c2ccc(Br)cc2)C1)C1(c2ccc3c(c2)OC(F)(F)O3)CC1` [Example 21, N-[(2S,4S)-2-(4-bromophenyl)tetrahydro-2H-pyran-4-yl]-1-(2,2-difluoro-1,3-benzodioxol-5-yl)cyclopropanecarboxamide], at F508delCFTR, it took 7720 nM to reach a half-maximal effect (EC50) and the Maximum % activity is reported as 59%.
Take `O=C(O)c1cccc([C@@H]2C[C@H](NC(=O)C3(c4ccc5c(c4)OC(F)(F)O5)CC3)C[C@H](c3ccccc3)O2)c1` [Example 26, 3-[(2S,4R,6R)-4-({[1-(2,2-difluoro-1,3-benzodioxol-5-yl)cyclopropyl]carbonyl}amino)-6-phenyltetrahydro-2H-pyran-2-yl]benzoic acid]: at F508delCFTR, the EC50 is ≥ 20000 nM and the Maximum % activity amounted to 16%.
In the case of `COC(=O)c1ccc([C@@H]2C[C@H](NC(=O)C3(c4ccc5c(c4)OC(F)(F)O5)CC3)CCO2)cc1` [Example 28, methyl 4-[(2S,4R)-4-({[1-(2,2-difluoro-1,3-benzodioxol-5-yl)cyclopropyl]carbonyl}amino)tetrahydro-2H-pyran-2-yl]benzoate], on F508delCFTR, the response was half-maximal at 3310 nM (EC50) and the Maximum % activity is 73%.
As to `COC(=O)c1ccc([C@H]2C[C@@H](NC(=O)C3(c4ccc5c(c4)OC(F)(F)O5)CC3)CCO2)cc1` [Example 29, methyl 4-[(2R,4S)-4-({[1-(2,2-difluoro-1,3-benzodioxol-5-yl)cyclopropyl]carbonyl}amino)tetrahydro-2H-pyran-2-yl]benzoate], at F508delCFTR, it took 1050 nM to reach a half-maximal effect (EC50) and the Maximum % activity was determined as 107%.
In the case of `O=C(O)c1ccc([C@@H]2C[C@H](NC(=O)C3(c4ccc5c(c4)OC(F)(F)O5)CC3)CCO2)cc1` [Example 30, 4-[(2S,4R)-4-({[1-(2,2-difluoro-1,3-benzodioxol-5-yl)cyclopropyl]carbonyl}amino)tetrahydro-2H-pyran-2-yl]benzoic acid], at F508delCFTR, the half-maximal effective concentration (EC50) was 9570 nM and the Maximum % activity was found to be 26%.
As for `O=C(O)c1ccc(C2CC(NC(=O)C3(c4ccc5c(c4)OC(F)(F)O5)CC3)CC(C3CC3)O2)cc1` (stereo not drawn) [Example 44, 4-[6-cyclopropyl-4-({[1-(2,2-difluoro-1,3-benzodioxol-5-yl)cyclopropyl]carbonyl}amino)tetrahydro-2H-pyran-2-yl]benzoic acid], at F508delCFTR, the EC50 came out at 2580 nM and the Maximum % activity was 88%.
As for `COC(=O)c1ccc([C@@H]2C[C@H](NC(=O)C3(c4ccc5c(c4)OC(F)(F)O5)CC3)C[C@H](c3ccc(C(=O)OC)cc3)O2)cc1` [Example 51, dimethyl rac-4,4′-[(2R,4s,6S)-4-({[1-(2,2-difluoro-1,3-benzodioxol-5-yl)cyclopropyl]carbonyl}amino)tetrahydro-2H-pyran-2,6-diyl]dibenzoate], at F508delCFTR, the EC50 was 760 nM and the Maximum % activity is listed as 103%.
The corresponding values for `COC(=O)c1ccc([C@@H]2C[C@@H](NC(=O)C3(c4ccc5c(c4)OC(F)(F)O5)CC3)C[C@H](c3ccc(C(=O)OC)cc3)O2)cc1` [Example 52, dimethyl rac-4,4′-[(2R,4r,6S)-4-({[1-(2,2-difluoro-1,3-benzodioxol-5-yl)cyclopropyl]carbonyl}amino)tetrahydro-2H-pyran-2,6-diyl]dibenzoate] are 1800 nM and 70%.
